Converted amounts (≈) assume the structure as drawn.
Columns and labels:
[1] = system: E. coli (n = 51), PCR for blaCTXM genes Negative; test: ESBL screening of clinical strains; type: cell-based; conditions: drug 1 μg/ml
Procedure: (§1) A total of 175 isolates representing E. coli (n=168), K. pneumoniae (n=7) were studied. Minimum inhibitory concentrations (MICs) to the following drugs were determined by Vitek (Vitek AMS; bioMérieux Vitek 5 Systems Inc., Hazelwood, Mo.); piperacillin (PIP), piperacillin/tazobactam (TZP), cefpodoxime (CPD), cefotaxime (CTX), ceftazidime (CAZ). The quality control strains used for this study were E. coli ATCC 25922, E. coli 35218, Pseudomonas aeruginosa ATCC 27853, Staphlylococcus aureus ATCC 29213, and K. pneumoniae ATCC 700603. Throughout this study, results were interpreted using National Committee for Clinical Laboratory Standards (NCCLS) criteria for broth dilution.
(§2) The presence of ESBLs was evaluated in both the control strains and the recent clinical isolates. Screening was performed with Vitek (Vitek AMS; bioMerieux Vitek Systems, Inc., Hazelwood, Mo.) using 1 μg/ml CPD, CAZ, and CTX. Screening and disk confirmation tests using CTX (30 μg) and CAZ (30 μg) disks in combination with 10 μg clavulanate (CLA) were performed and interpreted using NCCLS criteria for ESBL screening and disk confirmation tests. Disks for_ESBL confirmation tests were obtained from Oxoid Inc. (Nepean, Ontario, Canada). K. pneumoniae ATCC 700603 and E. coli ATCC 25922 were used as positive and negative controls, respectively.

[2] = system: E. coli (n = 93), Positive for CTX-M-1V group; test: ESBL screening of clinical strains; type: cell-based; conditions: drug 1 μg/ml
Procedure: as §1, §2

[3] = system: E. coli (n = 24), Positive for CTX-M-1 group; test: ESBL screening of clinical strains; type: cell-based; conditions: drug 1 μg/ml
Procedure: as §1, §2

[4] = system: K. pneumoniae (n = 5), PCR for blaCTXM genes Negative; test: ESBL screening of clinical strains; type: cell-based; conditions: drug 1 μg/ml
Procedure: as §1, §2

[5] = system: K. pneumoniae (n = 2), Positive for CTX-M-1V group; test: ESBL screening of clinical strains; type: cell-based; conditions: drug 1 μg/ml
Procedure: as §1, §2

[6] = system: Total (n = 175) clinical strains producing extended-spectrum β-lactamases; test: ESBL screening of clinical strains; type: cell-based, E. coli, K. pneumoniae; conditions: drug 1 μg/ml
Procedure: as §1, §2

[7] = system: Twenty two isolates representing E. coli (Ec), Citrobacter freundii (Cf) and C. koseri (Ck); test: MICs of the 22 isolates of Example 1; type: cell-based; conditions: read-out: MICs; all 22 isolates (E. coli, C. freundii, C. koseri)
Procedure: Twenty two isolates representing E. coli (Ec), Citrobacter freundii (Cf) and C. koseri (Ck) were studied. All of these strains had MICs of greater than (>) 32 micrograms per milliliter […] of cefotaxime, >16 mg/ml of cefepime, and ranged between 1 to 8 mg/ml for ceftazidime. Dendrogram analysis of CTX-M genes deposited in GenBank was performed, and based on these analyses, known CTX-M-genes were divided into four families. Based on these families, four sets of family-specific primers were designed. Specificity of the primers was tested on all 22 of the isolates.

ESBL-producing strains = conditions: drug used as an initial screen; cited from earlier work
[8] = system: DNA template prepared from control strains known to produce specific CTX-M β-lactamases or ESBLs other than CTX-M β-lactamases; test: PCR specificity test of designed primers on control strains; conditions: for amplification with the rest of the control strains: DNA template from all other control strains in Table 1; for size of single amplified product: DNA template from the control strains of the primer set's own group
Text: Once the primers are designed, their specificity can be tested using the following method. Depending on the target nucleic acid of clinical interest, a nucleic acid is isolated from a bacterial control strain known to express or contain the resistance gene. This control strain, as used herein, refers to a “positive control” nucleic acid (typically, DNA). Additionally, a “negative control” nucleic acid (typically, DNA) can be isolated from one or more bacterial strains known to express a resistance gene other than the target gene of interest. Using the polymerase chain reaction, the designed primers are employed in a detection method, as described above, and used in the positive and negative control samples and in at least one test sample suspected of containing the resistance gene of interest. The positive and negative controls provide an effective and qualitative (or grossly quantitative) means by which to establish the presence or the absence of the gene of interest of test clinical samples. It should be recognized that with a small percentage of primer pairs, possible cross-reactivity with other β-lactamase genes might be observed. However, the size and/or intensity of any cross-reactive amplified product will be considerably different and can therefore be readily evaluated and dismissed as a negative result.
Polymerase Chain Reaction (PCR) amplifications were carried out on a Thermal Cycler 9600 instrument (Applied Biosystems, Norwalk, Conn.) as indicated in Example 1, with the primers, the size of the expected amplification product, and annealing temperatures used for the PCR as listed in Table 1. Magnesium chloride concentrations were 1.5 mM for all PCR reactions.
The designed primers were tested for specificity in separate PCR reactions using DNA template prepared from control strains known to produce specific CTX-M β-lactamases or strains producing ESBLs other than CTX-M β-lactamases (Tables 1 and 2, FIG. 3). […] Group II primers amplified a single 351 bp fragment when DNA template was prepared from control strains Rio-4, 34, and CT1.
Group IV primers amplified a 474 bp product from DNA prepared from strains 785D, EC984167, CF1, Rio-6, BM4493, ILT-2, and ILT-3. […] An isolate producing CTX-M-25 was requested but not obtained. Therefore, we were unable to examine the ability of the Group III primer set to amplify blaCTX-M-25.

Row | Compound | Screening, No positive [1] | Screening, No positive (%) [1] | Screening, No positive [2] | Screening, No positive (%) [2] | Screening, No positive [3] | Screening, No positive (%) [3] | Screening, No positive [4] | Screening, No positive (%) [4] | Screening, No positive [5] | Screening, No positive (%) [5] | Screening, No positive [6] | Screening, No positive (%) [6] | MIC [7] | amplification with the rest of the control strains [8] | size of single amplified product [8] | other results
1 | CC(C)(O/N=C(\C(=O)N[C@@H]1C(=O)N2C(C(=O)[O-])=C(C[n+]3ccccc3)CS[C@H]12)c1csc(N)n1)C(=O)O [CAZ, ceftazidime] | 51 | (100%) | 71 | (76%) | 24 | (100%) | 5 | (100%) | 0 | (0%) | 151 | (86%) | 1 to 8 µg/mL (≈ 1.83 to 14.6 µM) |  |  | ESBL-producing strains not detected (ESBL-producing strains): about 14%
2 | COCC1=C(C(=O)O)N2C(=O)[C@@H](NC(=O)/C(=N\OC)c3csc(N)n3)[C@H]2SC1 [CPD, cefpodoxime] | 51 | (100%) | 93 | (100%) | 24 | (100%) | 5 | (100%) | 2 | (100%) | 175 | (100%) |  |  |  | 
3 | CO/N=C(\C(=O)N[C@@H]1C(=O)N2C(C(=O)O)=C(COC(C)=O)CS[C@H]12)c1csc(N)n1 [CTX, cefotaxime] | 48 | (94%) | 93 | (100%) | 24 | (100%) | 4 | (80%) | 2 | (100%) | 171 | (98%) | > 32 µg/mL |  |  | 
4 | CO/N=C(\C(=O)N[C@@H]1C(=O)N2C(C(=O)[O-])=C(C[N+]3(C)CCCC3)CS[C@H]12)c1csc(N)n1 [cefepime] |  |  |  |  |  |  |  |  |  |  |  |  | > 16 µg/mL |  |  | 
5 | CTX-M-I group: primer pair of SEQ ID NO:1 and SEQ ID NO:2, Group 1 CTX-M β-lactamases, 499 base pair amplicon (DNA 1 GACGATGTCACTGGCTGAGC; DNA 2 AGCCGCCGACGCTAATACA; PCR primers, chemistry not given here, further chemistry not given here) |  |  |  |  |  |  |  |  |  |  |  |  |  | No amplified product | 499 bp | 
6 | CTX-M-II group: primer pair of SEQ ID NO:3 and SEQ ID NO:4, Group 2 CTX-M β-lactamases, 351 base pair amplicon (DNA 1 GCGACCTGGTTAACTACAATCC; DNA 2 CGGTAGTATTGCCCTTAAGCC; PCR primers, chemistry not given here, further chemistry not given here) |  |  |  |  |  |  |  |  |  |  |  |  |  | no amplification product | 351 bp | 
7 | CTX-M-III group: primer pair of SEQ ID NO:7 and SEQ ID NO:8, Group 3 or Group 5 CTX-M β-lactamases, 307 base pair amplicon (DNA 1 CGCTTTGCCATGTGCAGCACC; DNA 2 GCTCAGTACGATCGAGCC; PCR primers, chemistry not given here, further chemistry not given here) |  |  |  |  |  |  |  |  |  |  |  |  |  |  |  | control strains whose DNA was amplified ([8]; all control strains of Table 1): amplification of DNA prepared from only one strain, Rio-3
8 | CTX-M-VI group: primer pair of SEQ ID NO:5 and SEQ ID NO:6, Group 4 CTX-M β-lactamases, 474 base pair amplicon (DNA 1 GCTGGAGAAAAGCAGCGGAG; DNA 2 GTAAGCTGACGCAACGTCTG; PCR primers, chemistry not given here, further chemistry not given here) |  |  |  |  |  |  |  |  |  |  |  |  |  | no amplification of DNA | 474 bp | 

Reference: US20070248954A1, “Primers for Use in Detecting Beta-Lactamases” (Creighton University, priority 2003, published 2007)
